Test results taken from the supplement of paper PMC11061612.

What was measured:
[1] = system: GOTO (Neuroblastoma); experiment: Bliss excess, mean over the matrix (fraction); higher = more synergy
Method in brief: (§1)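 Bliss excess equals the observed combination effect minus the expected value EA + EB − EA·EB, where EA and EB are the effects of each agent alone. Combination Emax is the second-highest inhibition within the matrix. Inhibition was scaled from CellTiter-Glo 2.0 luminescence, with 0 set by vehicle wells and 1 by blank wells, after 72 hours of two-drug dosing of cells plated in 1536-well plates.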

[2] = system: KP-2 (Pancreatic Carcinoma); experiment: as above
Method in brief: as §1

[3] = system: NH-12 (Neuroblastoma); experiment: as above
Method in brief: as §1

[4] = system: VMRC-LCD (Lung Adenocarcinoma); experiment: as above
Method in brief: as §1

[5] = system: EMC-BAC-2 (Non-Small Cell Lung Carcinoma); experiment: as above
Method in brief: as §1

[6] = system: GI-1 (Glioblastoma); experiment: as above
Method in brief: as §1

[7] = system: HuP-T3 (Pancreatic Carcinoma); experiment: as above
Method in brief: as §1

[8] = system: BT-20 (Breast Carcinoma); experiment: as above
Method in brief: as §1

[9] = system: KU-19-19 (Bladder Carcinoma); experiment: as above
Method in brief: as §1

[10] = system: EBC-1 (Squamous Cell Lung Carcinoma); experiment: as above
Method in brief: as §1

[11] = system: DG-75 (Burkitt's Lymphoma); experiment: as above
Method in brief: as §1

[12] = system: TGBC11TKB (Gastric Carcinoma); experiment: as above
Method in brief: as §1

[13] = system: OCUM-1 (Gastric Carcinoma); experiment: as above
Method in brief: as §1

[14] = system: OCUB-M (Breast Carcinoma); experiment: combination Emax (second highest fraction inhibited in the dose matrix, 72 h); higher = more inhibition; extreme values may be limits of the assay
Method in brief: as §1

[15] = system: JHH-7 (Hepatocellular Carcinoma); experiment: as above
Method in brief: as §1

[16] = system: SCC-3 (B-Cell Non-Hodgkin's Lymphoma); experiment: as above
Method in brief: as §1

[17] = system: SCC-9 (Oral Cavity Carcinoma); experiment: as above
Method in brief: as §1

[18] = system: NCI-H322M (Lung Adenocarcinoma); experiment: as above
Method in brief: as §1

[19] = system: KU-19-19 (Bladder Carcinoma); experiment: as above
Method in brief: as §1

[20] = system: NCI-H2405 (Lung Adenocarcinoma); experiment: as above
Method in brief: as §1

| SMILES | Bliss excess [1] | Bliss excess [2] | Bliss excess [3] | Bliss excess [4] | Bliss excess [5] | Bliss excess [6] | Bliss excess [7] | Bliss excess [8] | Bliss excess [9] | Bliss excess [10] | Bliss excess [11] | Bliss excess [12] | Bliss excess [13] | combination Emax [14] | combination Emax [15] | combination Emax [16] | combination Emax [17] | combination Emax [18] | combination Emax [19] | combination Emax [20] |
| --- | --- | --- | --- | --- | --- | --- | --- | --- | --- | --- | --- | --- | --- | --- | --- | --- | --- | --- | --- | --- |
| CC1(C)CCC(CN2CCN(c3ccc(C(=O)NS(=O)(=O)c4ccc(NCC5CCOCC5)c([N+](=O)[O-])c4)c(Oc4cnc5[nH]ccc5c4)c3)CC2)=C(c2ccc(Cl)cc2)C1 [Venetoclax] + CN(C)CCCOc1ccc(-c2ccc3ncc4c(c3c2)n(C2CCOCC2)c(=O)n4C)cn1 [AZD0156] (first compound max 1 µM, 7x7, partner max 1 µM) | -0.0194 | -0.0193 | -0.0978 | -0.0333 | -0.0593 | 0.0106 | -0.0925 | -0.0163 | -0.0167 | 0.0095 | -0.0123 | -0.0022 | -0.0257 | 0.749 | 0.18 | 0.157 | 0.174 | 0.31 | 0.135 | 0.14 |
| CC1(C)CCC(CN2CCN(c3ccc(C(=O)NS(=O)(=O)c4ccc(NCC5CCOCC5)c([N+](=O)[O-])c4)c(Oc4cnc5[nH]ccc5c4)c3)CC2)=C(c2ccc(Cl)cc2)C1 [Venetoclax] + COc1cc(Nc2ncc3c(n2)-c2ccc(Cl)cc2C(c2c(F)cccc2OC)=NC3)ccc1C(=O)O [Alisertib] (first compound max 1 µM, 7x7, partner max 10 µM) | -0.0217 | -0.0293 | 0.0844 | -0.043 | -0.0033 | 0.0787 | -0.0527 | 0.08 | -0.0086 | -0.0271 | 0.028 | 0.0709 | 0.0489 | 0.727 | 0.287 | 0.893 | 0.274 | 0.352 | 0.462 | 0.228 |
| CC1(C)CCC(CN2CCN(c3ccc(C(=O)NS(=O)(=O)c4ccc(NCC5CCOCC5)c([N+](=O)[O-])c4)c(Oc4cnc5[nH]ccc5c4)c3)CC2)=C(c2ccc(Cl)cc2)C1 [Venetoclax] + C[C@@H]1COCCN1C2=NC(=NC(=C2)C3(CC3)[S@](=N)(=O)C)C4=C5C=CNC5=NC=C4 [AZD6738] (first compound max 1 µM, 7x7, partner max 10 µM) | -0.039 | -0.0225 | -0.0647 | -0.0393 | -0.0196 | -0.0025 | -0.0201 | -0.0511 | -0.0844 | -0.0731 | -0.0021 | -0.0273 | -0.0242 | 0.652 | 0.285 | 0.938 | 0.342 | 0.894 | 0.745 | 0.305 |
| CC1(C)CCC(CN2CCN(c3ccc(C(=O)NS(=O)(=O)c4ccc(NCC5CCOCC5)c([N+](=O)[O-])c4)c(Oc4cnc5[nH]ccc5c4)c3)CC2)=C(c2ccc(Cl)cc2)C1 [Venetoclax] + C[C@@H](Nc1cc(F)cc(F)c1)c1cc(C(=O)N(C)C)cc2c(=O)cc(N3CCOCC3)oc12 [AZD8186] (first compound max 1 µM, 7x7, partner max 3 µM) | -0.0334 | -0.0312 | 0.124 | -0.0457 | -0.0393 | -0.0091 | -0.0275 | -0.0229 | -0.0402 | -0.0233 | 0.0255 | -0.0067 | -0.0263 | 0.276 | 0.0915 | 0.207 | 0.193 | 0.237 | 0.0745 | 0.0892 |
| CC1(C)CCC(CN2CCN(c3ccc(C(=O)NS(=O)(=O)c4ccc(NCC5CCOCC5)c([N+](=O)[O-])c4)c(Oc4cnc5[nH]ccc5c4)c3)CC2)=C(c2ccc(Cl)cc2)C1 [Venetoclax] + Cc1cc2ncnn2cc1Nc1ncc2c(n1)n(C1CCOCC1)c(=O)n2C [AZD7648] (first compound max 1 µM, 7x7, partner max 10 µM) | -0.0442 | -0.0577 | -0.0072 | -0.0675 | -0.0596 | 0.0369 | -0.0331 | -0.0229 | -0.0571 | 0.031 | -0.0157 | -0.0592 | -0.0144 | 0.383 | 0.134 | 0.214 | 0.194 | 0.414 | 0.225 | 0.103 |
| CC1(C)CCC(CN2CCN(c3ccc(C(=O)NS(=O)(=O)c4ccc(NCC5CCOCC5)c([N+](=O)[O-])c4)c(Oc4cnc5[nH]ccc5c4)c3)CC2)=C(c2ccc(Cl)cc2)C1 [Venetoclax] + Cn1cnc2c(F)c(Nc3ccc(Br)cc3Cl)c(C(=O)NOCCO)cc21 [Selumetinib] (first compound max 1 µM, 7x7, partner max 3 µM) | -0.0679 | -0.0177 | 0.0918 | -0.0386 | -0.0324 | -0.0095 | -0.0403 | -0.0021 | 0.0087 | -0.0542 | -0.06 | 0.0049 | -0.0508 | 0.286 | 0.145 | 0.205 | 0.386 | 0.541 | 0.748 | 0.373 |
